Measurements taken from EP2123641A1, “CRYSTAL, AMORPHOUS FORM AND SALT OF METHYL N-Ý3-(6,7-DIMETHOXY- 2-METHYLAMINOQUINAZOLIN-4-YL)PHENYL¨[…] ACID” (priority 2007, dated 2008).
Where two headings read alike, the source gives them in different places.

What was measured:
Conditions in all cases: human, 2880 min
CYP1A2 = tested on: CYP1A2
Procedure: (§1) Cryopreserved human hepatocytes (XenoTeek) were rapidly thawed at 37°C, and viable cells were obtained using Hepatocytes Isolation Kit (Nosan Corporation). After cells prepared were diluted with ice cold William's Medium E (10% FBS, +PSG) to give a concentration of 5 x 10^5 viable cells/mL, the cells were seeded onto a 48-well collagen-coated plate (BD Biosciences) at a concentration of 1 x 10^5 cells/cm^2 and cultured at 37°C in 5% CO2 for 24 hours. Then, the medium was replaced with Hepato-STIM (registered trade mark: BD Biosciences) (+EGF, PSG, -FBS), and the cells were further cultured at 37°C in 5% CO2 for 24 hours. […] The culture medium containing test compound, β-NF or Rif was replaced every 24 hours. Test compound, β-NF and Rif were each dissolved in dimethyl sulfoxide (DMSO: Wako Pure Chemical Industries, Ltd.), and culture medium containing test compound (final concentrations; 1, 3 and 10µM), β-NF (final concentration; 10µM) or Rif (final concentration; 10µM) was prepared by adding them to Hepato-STIM(+EGF, PSG, -FBS), respectively. […] The levels of mRNA for CYP1A1 and GAPDH were quantified using SYBR Green PCR Core Reagents Kit (Applied Biosystems), and those for CYP1A2 and that of CYP3A4 were measured using Taqman PCR Core Reagents Kit (Applied Biosystems) and ABI Prism 7900 Sequence Detection System (Applied Biosystems).
(§2) The ability of a test compound to induce CYP1A1 was calculated as follows: Ability of a test compound to induce CYP1A1 (%) = {[(amount of mRNA of CYP1A1 in test compound treated cells)/(amount of mRNA of GAPDH in test compound treated cells)]/[(amount of mRNA of CYP1A1 in control cells)/(amount of mRNA of GAPDH in control cells)] - 1}/{[(amount of mRNA of CYP1A1 in positive control treated cells)/(amount of mRNA of GAPDH in positive control treated cells)]/[(amount of mRNA of CYP1A1 in control cells)/(amount of mRNA of GAPDH in control cells)] -1} x 100 The ability to induce CYP1A2 or CYP3A4 was calculated in the same manner described above.

CYP3A4 = tested on: CYP3A4
Procedure: as §1, §2

CYP1A1 = tested on: CYP1A1
Procedure: Cryopreserved human hepatocytes (XenoTeek) were rapidly thawed at 37°C, and viable cells were obtained using Hepatocytes Isolation Kit (Nosan Corporation). […] Then, the medium was replaced with Hepato-STIM (registered trade mark: BD Biosciences) (+EGF, PSG, -FBS), and the cells were further cultured at 37°C in 5% CO2 for 24 hours. […] The culture medium containing test compound, β-NF or Rif was replaced every 24 hours. […] The levels of mRNA for CYP1A1 and GAPDH were quantified using SYBR Green PCR Core Reagents Kit (Applied Biosystems), and those for CYP1A2 and that of CYP3A4 were measured using Taqman PCR Core Reagents Kit (Applied Biosystems) and ABI Prism 7900 Sequence Detection System (Applied Biosystems).

Induction Ability compared to positive control (%) CYP1A2 (CYP1A2; 1 uM) [%] | Induction Ability compared to positive control (%) CYP1A2 (CYP1A2; 3 uM) [%] | Induction Ability compared to positive control (%) CYP1A2 (CYP1A2; 10 uM) [%] | Induction Ability compared to positive control (%) CYP3A4 (CYP3A4; 1 uM) [%] | Induction Ability compared to positive control (%) CYP3A4 (CYP3A4; 3 uM) [%] | Induction Ability compared to positive control (%) CYP3A4 (CYP3A4; 10 uM) [%] | Induction Ability compared to positive control (%) CYP1A1 (CYP1A1; 1 uM) [%] | Induction Ability compared to positive control (%) CYP1A1 (CYP1A1; 3 uM) [%] | Induction Ability compared to positive control (%) CYP1A1 (CYP1A1; 10 uM) [%] | Compound
-0.1 | -0.7 | 2.5 | -2.4 | -3.4 | -4.0 | 0.1 | 0.6 | 4.6 | CNc1nc(-c2cccc(NC(=O)c3ccc(C(=O)OC)cc3)c2)c2cc(OC)c(OC)cc2n1 [Example 1, methyl N-[3-(6,7-dimethoxy-2-methylaminoquinazolin-4-yl)phenyl]terephthalamic acid]
 |  |  |  |  |  |  |  | 100.0 | O=c1cc(-c2ccccc2)oc2ccc3ccccc3c12 [β-naphthoflavone, reference compound]
